Reference: patent US9464084B2, “P2X7 modulators” (Janssen Pharmaceutica NV, priority 2013, dated 2016)

Legend:
Format in all cases: cell-based
rat P2X7 = rat P2X7 (Rattus norvegicus (Rat), UniProt Q64663); assay: Ca2+ flux (FLIPR) in 1321N1 cells expressing recombinant rat P2X7 channel; details: 250 μM BzATP;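 also: Calcium-4 dye fluorescence change read 180 s after agonist addition, following 30 min cell preincubation with test compound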
P2X7 [1] = biological target: T1, P2X7 (Homo sapiens (Human), UniProt Q99572); assay: Ca2+ flux (FLIPR) in 1321N1 cells expressing recombinant human P2X7 channel; details: 250 μM BzATP;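 also: Calcium-4 dye-loaded cells exposed to compound for 30 min before agonist addition, fluorescence change read 180 s after agonist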
P2X7 [2] = biological target: T1, P2X7; assay: P2X7 antagonism in human PBMCs (LPS + Bz-ATP induced IL-1β release, ELISA); details: LPS 30 ng/ml, Bz-ATP 0.5 mM; for PBMC 10 μM (% control): compound 10 μM; for PBMC 1 μM (% control): compound 1 μM;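 as to all read-outs here: PBMCs from donor human blood, with a further 1.5 h incubation of the cells in the assay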
Protocol: Human blood was collected using a blood donor program. PBMCs were isolated from blood using a Ficoll density gradient technique. Briefly, blood was laid on Ficoll solution and centrifuged at RT for 20 minutes at 2000 rpm. The buffy layer (between red blood cells and plasma) was carefully collected by aspiration, washed with PBS and centrifuged again at 1500 rpm for 15 minutes. The resulting cell pellet was washed and plated on 96 well-plates for experiments. For the Mouse/Human Whole Blood experiments, 150 μl of either mouse or human blood was platted on 96 well-plates. Lipopolysaccharide (LPS) (30 ng/ml) was added to each well and incubated for 1 hour. Test compounds were then added and incubated for 30 minutes. The P2X7 agonist, 2′(3′)-O-(4-benzoylbenzoyl) adenosine 5′ triphosphate (Bz-ATP) was then added at a final concentration of 0.5 mM (PBMC) or 1 mM (blood). Cells were incubated for an additional 1.5 hours. At that point, supernatant was collected and stored for IL-1β assay using manufacturer's protocol for enzyme-linked immunosorbent assay (ELISA). Data was expressed as percent control, where control is defined as the difference in IL-1β release in LPS+Bz-ATP samples and LPS only samples. Data was plotted as response (% control) versus concentration to generate IC50 values.

Chain of rat P2X7 (Q64663 whole entry): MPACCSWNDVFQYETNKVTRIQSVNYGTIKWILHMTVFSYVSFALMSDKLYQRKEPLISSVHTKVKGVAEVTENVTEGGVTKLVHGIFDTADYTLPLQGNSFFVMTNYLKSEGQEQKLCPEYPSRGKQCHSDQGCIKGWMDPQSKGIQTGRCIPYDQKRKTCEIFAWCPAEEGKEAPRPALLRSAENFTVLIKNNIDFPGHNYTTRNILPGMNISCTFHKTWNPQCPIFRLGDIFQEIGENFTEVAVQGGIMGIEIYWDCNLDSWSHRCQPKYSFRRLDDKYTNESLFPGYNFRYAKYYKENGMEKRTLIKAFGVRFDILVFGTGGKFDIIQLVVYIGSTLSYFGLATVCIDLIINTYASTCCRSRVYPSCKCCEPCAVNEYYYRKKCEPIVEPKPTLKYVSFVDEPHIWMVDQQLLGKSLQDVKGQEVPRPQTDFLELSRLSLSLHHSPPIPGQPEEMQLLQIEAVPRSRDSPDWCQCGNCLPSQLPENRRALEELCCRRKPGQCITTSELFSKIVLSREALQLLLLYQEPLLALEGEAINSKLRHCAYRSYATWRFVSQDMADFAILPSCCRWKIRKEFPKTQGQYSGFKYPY
T1 sequence (Q99572 whole entry): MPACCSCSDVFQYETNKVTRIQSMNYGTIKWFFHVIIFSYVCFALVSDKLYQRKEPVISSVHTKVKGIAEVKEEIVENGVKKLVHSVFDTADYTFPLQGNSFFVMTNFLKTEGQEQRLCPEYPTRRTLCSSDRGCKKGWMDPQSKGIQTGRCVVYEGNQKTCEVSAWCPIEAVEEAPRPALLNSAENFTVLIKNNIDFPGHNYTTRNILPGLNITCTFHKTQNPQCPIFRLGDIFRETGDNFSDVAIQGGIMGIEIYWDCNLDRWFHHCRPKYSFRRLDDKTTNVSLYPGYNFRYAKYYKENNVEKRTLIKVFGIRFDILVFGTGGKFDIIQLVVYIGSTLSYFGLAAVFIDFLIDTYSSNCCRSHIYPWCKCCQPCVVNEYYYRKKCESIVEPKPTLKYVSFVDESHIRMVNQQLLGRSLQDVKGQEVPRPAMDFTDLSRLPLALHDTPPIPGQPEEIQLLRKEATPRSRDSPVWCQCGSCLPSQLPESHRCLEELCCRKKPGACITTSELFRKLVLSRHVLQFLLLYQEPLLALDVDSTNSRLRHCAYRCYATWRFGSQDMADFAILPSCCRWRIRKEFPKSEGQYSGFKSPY

Question: What does the source list for C[C@@H]1c2nnn(-c3cccc(F)n3)c2CCN1C(=O)c1cccc(C(F)(F)F)c1Cl (single isomer, unassigned) [Example 146, (R*)-(2-chloro-3-(trifluoromethyl)phenyl)(1-(6-fluoropyridin-2-yl)-4-methyl-6,7-dihydro-1H-[1,2,3]triazolo[4,5-c]pyridin-5(4H)-yl)methanone]?
Answer: IC50 (rat P2X7): > 10 µM; IC50 (P2X7 [1]): 2.7 µM; PBMC 10 μM (% control) (P2X7 [2]): 30.9 % control

Question: With C[C@@H]1Cc2c(nnn2-c2ncccn2)CN1C(=O)c1cccc(C(F)(F)F)c1Cl (single isomer, unassigned) [Example 221, (6R*)-5-{[2-Chloro-3-(trifluoromethyl)phenyl]carbonyl}-6-methyl-1-pyrimidin-2-yl-4,5,6,7-tetrahydro-1H-[1,2,3]triazolo[4,5-c]pyridine] as the molecule, how does the IC50 (rat P2X7) read?
Answer: 6.68 µM

Question: And the IC50 (P2X7 [1])?
Answer: 0.506 µM

Question: And the “PBMC 10 μM (% control)” value (P2X7 [2])?
Answer: 17.8 % control

Question: What does the source list for CC1C=CN=C(n2nnc3c2CCN(C(=O)c2cccc(C(F)(F)F)c2Cl)[C@@H]3C)N1 (single isomer, unassigned) [Example 234, (4R*)-(2-Chloro-3-(trifluoromethyl)phenyl)((4R)-4-methyl-1-(6-methyl-1,6-dihydropyrimidin-2-yl)-6,7-dihydro-1H-[1,2,3]triazolo[4,5-c]pyridin-5(4H)-yl)methanone]?
Answer: IC50 (rat P2X7): 2 µM; IC50 (P2X7 [1]): 0.2 µM; PBMC 10 μM (% control) (P2X7 [2]): −40.9 % control

Question: C[C@@H]1c2nnn(-c3cncnc3)c2CCN1C(=O)c1cccc(C(F)(F)F)c1Cl (single isomer, unassigned) [Example 334, (R*)-(2-chloro-3-(trifluoromethyl)phenyl)(4-methyl-1-(pyrimidin-5-yl)-6,7-dihydro-1H-[1,2,3]triazolo[4,5-c]pyridin-5(4H)-yl)methanone] was tested. Which IC50 (rat P2X7) did it give?
Answer: > 10 µM

Question: What about the IC50 (P2X7 [1]) of the same molecule?
Answer: > 10 µM

Question: What about the “PBMC 10 μM (% control)” value (P2X7 [2]) of the same molecule?
Answer: 101.8 % control

Question: CC(C)C1c2ncn(-c3cnccn3)c2CCN1C(=O)c1cccc(C(F)(F)F)c1Cl (centres unmarked) [Example 16, (2-Chloro-3-(trifluoromethyl)phenyl)(4-isopropyl-1-(pyrazin-2-yl)-6,7-dihydro-1H-imidazo[4,5-c]pyridin-5(4H)-yl)methanone] was tested. Which IC50 (rat P2X7) did it give?
Answer: 0.456 µM

Question: And the IC50 (P2X7 [1])?
Answer: 0.104 µM

Question: What about the “PBMC 1 μM (% control)” value (P2X7 [2]) of the same molecule?
Answer: 8.5 % control

Question: What does the source list for CCOC(=O)C1c2ncn(-c3cnccn3)c2CCN1C(=O)c1cccc(C(F)(F)F)c1Cl (centres unmarked) [Example 28, Ethyl 5-{[2-chloro-3-(trifluoromethyl)phenyl]carbonyl}-1-pyrazin-2-yl-4,5,6,7-tetrahydro-1H-imidazo[4,5-c]pyridine-4-carboxylate]?
Answer: IC50 (rat P2X7): 0.0165 µM; IC50 (P2X7 [1]): 0.0138 µM; PBMC 1 μM (% control) (P2X7 [2]): 4.8 % control

Question: Cc1nc2c(n1-c1ccccc1)CCN(C(=O)c1cccc(C(F)(F)F)c1Cl)C2 [Example 37, (2-Chloro-3-(trifluoromethyl)phenyl)(2-methyl-1-phenyl-6,7-dihydro-1H-imidazo[4,5-c]pyridin-5(4H)-yl)methanone] was tested. Which IC50 (rat P2X7) did it give?
Answer: 1.53 µM

Question: And the IC50 (P2X7 [1])?
Answer: 0.0993 µM

Question: And the “PBMC 10 μM (% control)” value (P2X7 [2])?
Answer: −9.1 % control

Question: Which IC50 (rat P2X7) does the source give for CC1c2ncn(-c3cnccn3)c2C=CN1C(=O)c1cccc(C(F)(F)F)c1Cl (centres unmarked) [Example 56, 5-{[2-Chloro-3-(trifluoromethyl)phenyl]carbonyl}-4-methyl-1-pyrazin-2-yl-4,5-dihydro-1H-imidazo[4,5-c]pyridine] here?
Answer: 0.398 µM

Question: What about the IC50 (P2X7 [1]) of the same molecule?
Answer: 0.0251 µM

Question: What about the “PBMC 1 μM (% control)” value (P2X7 [2]) of the same molecule?
Answer: 10.1 % control

Question: CC1c2nnn(-c3ccc(F)cn3)c2CCN1C(=O)c1cccc(C(F)(F)F)c1Cl (centres unmarked) [Example 71, 5-{[2-Chloro-3-(trifluoromethyl)phenyl]carbonyl}-1-(5-fluoropyridin-2-yl)-4-methyl-4,5,6,7-tetrahydro-1H-[1,2,3]triazolo[4,5-c]pyridine] was tested. Which IC50 (rat P2X7) did it give?
Answer: 0.397 µM

Question: And the IC50 (P2X7 [1])?
Answer: 0.049 µM

Question: What about the “PBMC 10 μM (% control)” value (P2X7 [2]) of the same molecule?
Answer: 11.1 % control

Question: What does the source list for Cn1nc(-c2ccc(F)cc2)c2c1CN(C(=O)c1cccc(C(F)(F)F)c1Cl)CC2 [Example 106, 6-{[2-Chloro-3-(trifluoromethyl)phenyl]carbonyl}-3-(4-fluorophenyl)-1-methyl-4,5,6,7-tetrahydro-1H-pyrazolo[3,4-c]pyridine]?
Answer: IC50 (rat P2X7): 1.58 µM; IC50 (P2X7 [1]): 0.159 µM; PBMC 1 μM (% control) (P2X7 [2]): 64.4 % control

Question: What does the source list for O=C(c1cccc(Cl)c1Cl)N1CCc2c(-c3ccc(F)cc3)n[nH]c2C1 [Example 114, 6-[(2,3-Dichlorophenyl)carbonyl]-3-(4-fluorophenyl)-4,5,6,7-tetrahydro-2H-pyrazolo[3,4-c]pyridine]?
Answer: IC50 (rat P2X7): 1.26 µM; IC50 (P2X7 [1]): 0.0631 µM; PBMC 1 μM (% control) (P2X7 [2]): 20.4 % control

Question: Which IC50 (rat P2X7) does the source give for O=C(c1ccc(F)cc1Cl)N1CCc2c(nnn2-c2ccccn2)C1 [Example 117, (2-Chloro-4-fluorophenyl)(1-(pyridin-2-yl)-6,7-dihydro-1H-[1,2,3]triazolo[4,5-c]pyridin-5(4H)-yl)methanone] here?
Answer: > 10 µM

Question: What about the IC50 (P2X7 [1]) of the same molecule?
Answer: 2.22 µM

Question: And the “PBMC 10 μM (% control)” value (P2X7 [2])?
Answer: 4.3 % control

Question: What does the source list for COc1ccccc1-n1nnc2c1CCN(C(=O)c1cccc(C(F)(F)F)c1Cl)C2 [Example 125, (2-Chloro-3-(trifluoromethyl)phenyl)(1-(2-methoxyphenyl)-6,7-dihydro-1H-[1,2,3]triazolo[4,5-c]pyridin-5(4H)-yl)methanone]?
Answer: IC50 (rat P2X7): 1.26 µM; IC50 (P2X7 [1]): 0.159 µM; PBMC 1 μM (% control) (P2X7 [2]): 83.4 % control

Question: Which results are given for Cn1nccc1-n1nnc2c1CCN(C(=O)c1cccc(C(F)(F)F)c1Cl)C2 [Example 128, (2-Chloro-3-(trifluoromethyl)phenyl)(1-(1-methyl-1H-pyrazol-5-yl)-6,7-dihydro-1H-[1,2,3]triazolo[4,5-c]pyridin-5(4H)-yl)methanone]?
Answer: IC50 (rat P2X7): > 10 µM; IC50 (P2X7 [1]): 2.11 µM; PBMC 10 μM (% control) (P2X7 [2]): 23.1 % control

Question: Which results are given for O=C(c1ccc(Cl)cc1F)N1CCc2c(nnn2-c2ccccn2)C1 [Example 129, (4-Chloro-2-fluorophenyl)(1-(pyridin-2-yl)-6,7-dihydro-1H-[1,2,3]triazolo[4,5-c]pyridin-5(4H)-yl)methanone]?
Answer: IC50 (rat P2X7): 3.35 µM; IC50 (P2X7 [1]): 0.366 µM; PBMC 10 μM (% control) (P2X7 [2]): 8.4 % control

Question: With Cc1c(C(=O)N2Cc3nnn(-c4cc[nH]n4)c3CC2C)cccc1C(F)(F)F (centres unmarked) [Example 154, (6-methyl-1-(1H-pyrazol-3-yl)-6,7-dihydro-1H-[1,2,3]triazolo[4,5-c]pyridin-5(4H)-yl)(2-methyl-3-(trifluoromethyl)phenyl)methanone] as the molecule, how does the IC50 (rat P2X7) read?
Answer: 0.0102 µM

Question: And the IC50 (P2X7 [1])?
Answer: 0.0165 µM

Question: And the “PBMC 10 μM (% control)” value (P2X7 [2])?
Answer: −0.6 % control

Question: For C[C@H]1Cc2c(nnn2-c2ncc(F)cn2)CN1C(=O)c1ccc(Cl)cc1F [Example 156, (S)-(4-chloro-2-fluorophenyl)(1-(5-fluoropyrimidin-2-yl)-6-methyl-6,7-dihydro-1H-[1,2,3]triazolo[4,5-c]pyridin-5(4H)-yl)methanone], which IC50 (rat P2X7) is on record?
Answer: 0.604 µM

Question: What about the IC50 (P2X7 [1]) of the same molecule?
Answer: 0.0144 µM

Question: And the “PBMC 10 μM (% control)” value (P2X7 [2])?
Answer: 1.8 % control

Question: For Cc1cnc(-n2nnc3c2CCN(C(=O)c2cccc(C(F)(F)F)c2Cl)C3C)c(C)c1 (centres unmarked) [Example 159, (2-chloro-3-(trifluoromethyl)phenyl)(1-(3,5-dimethylpyridin-2-yl)-4-methyl-6,7-dihydro-1H-[1,2,3]triazolo[4,5-c]pyridin-5(4H)-yl)methanone], which IC50 (rat P2X7) is on record?
Answer: > 10 µM

Question: And the IC50 (P2X7 [1])?
Answer: > 10 µM

Question: What about the “PBMC 10 μM (% control)” value (P2X7 [2]) of the same molecule?
Answer: 54.1 % control

Question: Which results are given for Cc1cnc(-n2nnc3c2CCN(C(=O)c2cccc(Cl)c2Cl)C3C)c(C)c1 (centres unmarked) [Example 160, (2,3-dichlorophenyl)(1-(3,5-dimethylpyridin-2-yl)-4-methyl-6,7-dihydro-1H-[1,2,3]triazolo[4,5-c]pyridin-5(4H)-yl)methanone]?
Answer: IC50 (rat P2X7): > 10 µM; IC50 (P2X7 [1]): > 10 µM; PBMC 10 μM (% control) (P2X7 [2]): 101.5 % control

Question: With CC1c2nnn(-c3cncnc3)c2CCN1C(=O)c1cccc(C(F)(F)F)c1Cl (centres unmarked) [Example 177, (2-Chloro-3-(trifluoromethyl)phenyl)(4-methyl-1-(pyrimidin-5-yl)-6,7-dihydro-1H-[1,2,3]triazolo[4,5-c]pyridin-5(4H)-yl)methanone] as the molecule, how does the IC50 (rat P2X7) read?
Answer: > 10 µM

Question: And the IC50 (P2X7 [1])?
Answer: 0.227 µM

Question: What about the “PBMC 10 μM (% control)” value (P2X7 [2]) of the same molecule?
Answer: 8.6 % control

Question: Which results are given for Cc1cncc(-n2nnc3c2CCN(C(=O)c2cccc(Cl)c2Cl)C3C)n1 (centres unmarked) [Example 180, (2,3-dichlorophenyl)(4-methyl-1-(6-methylpyrazin-2-yl)-6,7-dihydro-1H-[1,2,3]triazolo[4,5-c]pyridin-5(4H)-yl)methanone]?
Answer: IC50 (rat P2X7): > 10 µM; IC50 (P2X7 [1]): 0.592 µM; PBMC 10 μM (% control) (P2X7 [2]): −3.7 % control

Question: How did the IC50 (rat P2X7) turn out when Cc1cc(C)nc(-n2nnc3c2CCN(C(=O)c2cccc(Cl)c2Cl)C3C)c1 (centres unmarked) [Example 231, (2,3-dichlorophenyl)(1-(4,6-dimethylpyridin-2-yl)-4-methyl-6,7-dihydro-1H-[1,2,3]triazolo[4,5-c]pyridin-5(4H)-yl)methanone] was run?
Answer: 38.2 µM

Question: And the IC50 (P2X7 [1])?
Answer: 0.499 µM

Question: What about the “PBMC 10 μM (% control)” value (P2X7 [2]) of the same molecule?
Answer: −4.8 % control

Question: Which IC50 (rat P2X7) does the source give for CC1c2nnn(-c3cncnc3)c2C=CN1C(=O)c1cccc(C(F)(F)F)c1Cl (centres unmarked) [Example 236, (2-Chloro-3-(trifluoromethyl)phenyl)(4-methyl-1-(pyrimidin-5-yl)-1H-[1,2,3]triazolo[4,5-c]pyridin-5(4H)-yl)methanone] here?
Answer: > 10 µM

Question: And the IC50 (P2X7 [1])?
Answer: 1.19 µM

Question: And the “PBMC 10 μM (% control)” value (P2X7 [2])?
Answer: 9.3 % control

Question: How did the IC50 (rat P2X7) turn out when CC1CN(C(=O)c2cccc(C(F)(F)F)c2Cl)C(C)c2nnn(-c3ccc(F)cc3)c21 (centres unmarked) [Example 238, (2-Chloro-3-(trifluoromethyl)phenyl)(1-(4-fluorophenyl)-4,7-dimethyl-6,7-dihydro-1H-[1,2,3]triazolo[4,5-c]pyridin-5(4H)-yl)methanone] was run?
Answer: 0.724 µM

Question: And the IC50 (P2X7 [1])?
Answer: 0.0271 µM

Question: What about the “PBMC 10 μM (% control)” value (P2X7 [2]) of the same molecule?
Answer: −4.1 % control

Question: What does the source list for CC1c2ncn(-c3ccc(F)cn3)c2CCN1C(=O)c1ccc(F)cc1Cl (centres unmarked) [Example 256, (2-chloro-4-fluorophenyl)(1-(5-fluoropyridin-2-yl)-4-methyl-6,7-dihydro-1H-imidazo[4,5-c]pyridin-5(4H)-yl)methanone]?
Answer: IC50 (rat P2X7): > 10 µM; IC50 (P2X7 [1]): 2.39 µM; PBMC 10 μM (% control) (P2X7 [2]): 7.1 % control

Question: Which results are given for O=C(c1ccc(Cl)cc1Cl)N1CCc2c(ncn2-c2ccc(F)cn2)C1 [Example 313, (2,4-dichlorophenyl)(1-(5-fluoropyridin-2-yl)-6,7-dihydro-1H-imidazo[4,5-c]pyridin-5(4H)-yl)methanone]?
Answer: IC50 (P2X7 [1]): 1.11 µM; PBMC 10 μM (% control) (P2X7 [2]): −5.4 % control
